{
  "source": "paper PMC3523469",
  "about": "(Investigational New Drugs, 2012)",
  "type": "in vivo, Japanese patients",
  "key": {"[1]": {"conditions": "across all dose levels, 13 patients"}},
  "note": "Like-named read-outs stand apart in the source and are kept apart here.",
  "data": [
    {"smiles": "COc1cc2ncnc(Nc3ccc(F)c(Cl)c3)c2cc1NC(=O)/C=C/CN1CCCCC1", "note": "[dacomitinib, Dacomitinib]", "values": [
      {"measurement": "Alanine aminotransferase increased, number of patients with treatment-related AE", "setting": "45 mg QD (n = 7), G3", "value": 1},
      {"measurement": "Aspartate aminotransferase increased, number of patients with treatment-related AE", "setting": "45 mg QD (n = 7), G3", "value": 1},
      {"measurement": "Blood bilirubin increased, number of patients with treatment-related AE", "setting": "45 mg QD (n = 7), G3", "value": 1},
      {"measurement": "Cheilitis, number of patients with treatment-related AE", "setting": "45 mg QD (n = 7), G3", "value": 0},
      {"measurement": "Conjunctivitis, number of patients with treatment-related AE", "setting": "45 mg QD (n = 7), G3", "value": 0},
      {"measurement": "Decreased appetite, number of patients with treatment-related AE", "setting": "45 mg QD (n = 7), G3", "value": 1},
      {"measurement": "Diarrhea, number of patients with treatment-related AE", "setting": "45 mg QD (n = 7), G3", "value": 0},
      {"measurement": "Dry skin, number of patients with treatment-related AE", "setting": "45 mg QD (n = 7), G3", "value": 0},
      {"measurement": "ECG QT prolonged, number of patients with treatment-related AE", "setting": "45 mg QD (n = 7), G3", "value": 0},
      {"measurement": "Edema, number of patients with treatment-related AE", "setting": "45 mg QD (n = 7), G3", "value": 0},
      {"measurement": "Fatigue, number of patients with treatment-related AE", "setting": "45 mg QD (n = 7), G3", "value": 0},
      {"measurement": "Hematuria, number of patients with treatment-related AE", "setting": "45 mg QD (n = 7), G3", "value": 0},
      {"measurement": "Hypertrichosis, number of patients with treatment-related AE", "setting": "45 mg QD (n = 7), G3", "value": 0},
      {"measurement": "Leukopenia, number of patients with treatment-related AE", "setting": "45 mg QD (n = 7), G3", "value": 0},
      {"measurement": "Nausea, number of patients with treatment-related AE", "setting": "45 mg QD (n = 7), G3", "value": 0},
      {"measurement": "Palmar–plantar erythrodysesthesia, number of patients with treatment-related AE", "setting": "45 mg QD (n = 7), G3", "value": 0},
      {"measurement": "Paronychia, number of patients with treatment-related AE", "setting": "45 mg QD (n = 7), G3", "value": 0},
      {"measurement": "Proteinuria, number of patients with treatment-related AE", "setting": "45 mg QD (n = 7), G3", "value": 0},
      {"measurement": "Rash, number of patients with treatment-related AE", "setting": "45 mg QD (n = 7), G3", "value": 2},
      {"measurement": "Skin fissures, number of patients with treatment-related AE", "setting": "45 mg QD (n = 7), G3", "value": 0},
      {"measurement": "Stomatitis, number of patients with treatment-related AE", "setting": "45 mg QD (n = 7), G3", "value": 0},
      {"measurement": "Weight decreased, number of patients with treatment-related AE", "setting": "45 mg QD (n = 7), G3", "value": 0},
      {"measurement": "device-related infection, treatment-related grade 3 AE, number", "setting": "45 mg dosing cohort", "value": 1},
      {"measurement": "treatment-related grade 3 AEs, number", "setting": "45 mg dosing cohort", "value": "seven"},
      {"measurement": "Dose-limiting toxicity (DLT)", "setting": "15, 30, 45 mg QD, single dose to day 21 of cycle 1, 12 patients evaluated", "value": "no DLTs observed at any dose"},
      {"measurement": "clinically recommended phase II dose (RP2D)", "setting": "Japanese patients with advanced solid tumors", "value": 45, "unit": "mg QD"},
      {"measurement": "Alanine aminotransferase increased, % of patients with treatment-related AE", "setting": "Total (N = 13)", "value": 15, "unit": "%"},
      {"measurement": "Alanine aminotransferase increased, number of patients with treatment-related AE", "setting": "Total (N = 13)", "value": 2},
      {"measurement": "Aspartate aminotransferase increased, % of patients with treatment-related AE", "setting": "Total (N = 13)", "value": 15, "unit": "%"},
      {"measurement": "Aspartate aminotransferase increased, number of patients with treatment-related AE", "setting": "Total (N = 13)", "value": 2},
      {"measurement": "Blood bilirubin increased, % of patients with treatment-related AE", "setting": "Total (N = 13)", "value": 15, "unit": "%"},
      {"measurement": "Blood bilirubin increased, number of patients with treatment-related AE", "setting": "Total (N = 13)", "value": 2},
      {"measurement": "Cheilitis, % of patients with treatment-related AE", "setting": "Total (N = 13)", "value": 38, "unit": "%"},
      {"measurement": "Cheilitis, number of patients with treatment-related AE", "setting": "Total (N = 13)", "value": 5},
      {"measurement": "Conjunctivitis, % of patients with treatment-related AE", "setting": "Total (N = 13)", "value": 31, "unit": "%"},
      {"measurement": "Conjunctivitis, number of patients with treatment-related AE", "setting": "Total (N = 13)", "value": 4},
      {"measurement": "Decreased appetite, % of patients with treatment-related AE", "setting": "Total (N = 13)", "value": 23, "unit": "%"},
      {"measurement": "Decreased appetite, number of patients with treatment-related AE", "setting": "Total (N = 13)", "value": 3},
      {"measurement": "Diarrhea, % of patients with treatment-related AE", "setting": "Total (N = 13)", "value": 92, "unit": "%"},
      {"measurement": "Diarrhea, number of patients with treatment-related AE", "setting": "Total (N = 13)", "value": 12},
      {"measurement": "Dry skin, % of patients with treatment-related AE", "setting": "Total (N = 13)", "value": 61.5, "unit": "%"},
      {"measurement": "Dry skin, number of patients with treatment-related AE", "setting": "Total (N = 13)", "value": 8},
      {"measurement": "ECG QT prolonged, % of patients with treatment-related AE", "setting": "Total (N = 13)", "value": 15, "unit": "%"},
      {"measurement": "ECG QT prolonged, number of patients with treatment-related AE", "setting": "Total (N = 13)", "value": 2},
      {"measurement": "Edema, % of patients with treatment-related AE", "setting": "Total (N = 13)", "value": 15, "unit": "%"},
      {"measurement": "Edema, number of patients with treatment-related AE", "setting": "Total (N = 13)", "value": 2},
      {"measurement": "Fatigue, % of patients with treatment-related AE", "setting": "Total (N = 13)", "value": 46, "unit": "%"},
      {"measurement": "Fatigue, number of patients with treatment-related AE", "setting": "Total (N = 13)", "value": 6},
      {"measurement": "Hematuria, % of patients with treatment-related AE", "setting": "Total (N = 13)", "value": 15, "unit": "%"},
      {"measurement": "Hematuria, number of patients with treatment-related AE", "setting": "Total (N = 13)", "value": 2},
      {"measurement": "Hypertrichosis, % of patients with treatment-related AE", "setting": "Total (N = 13)", "value": 15, "unit": "%"},
      {"measurement": "Hypertrichosis, number of patients with treatment-related AE", "setting": "Total (N = 13)", "value": 2},
      {"measurement": "Leukopenia, % of patients with treatment-related AE", "setting": "Total (N = 13)", "value": 23, "unit": "%"},
      {"measurement": "Leukopenia, number of patients with treatment-related AE", "setting": "Total (N = 13)", "value": 3},
      {"measurement": "Nausea, % of patients with treatment-related AE", "setting": "Total (N = 13)", "value": 23, "unit": "%"},
      {"measurement": "Nausea, number of patients with treatment-related AE", "setting": "Total (N = 13)", "value": 3},
      {"measurement": "Palmar–plantar erythrodysesthesia, % of patients with treatment-related AE", "setting": "Total (N = 13)", "value": 38, "unit": "%"},
      {"measurement": "Palmar–plantar erythrodysesthesia, number of patients with treatment-related AE", "setting": "Total (N = 13)", "value": 5},
      {"measurement": "Paronychia, % of patients with treatment-related AE", "setting": "Total (N = 13)", "value": 69, "unit": "%"},
      {"measurement": "Paronychia, number of patients with treatment-related AE", "setting": "Total (N = 13)", "value": 9},
      {"measurement": "Proteinuria, % of patients with treatment-related AE", "setting": "Total (N = 13)", "value": 23, "unit": "%"},
      {"measurement": "Proteinuria, number of patients with treatment-related AE", "setting": "Total (N = 13)", "value": 3},
      {"measurement": "Rash, % of patients with treatment-related AE", "setting": "Total (N = 13)", "value": 100, "unit": "%"},
      {"measurement": "Rash, number of patients with treatment-related AE", "setting": "Total (N = 13)", "value": 13},
      {"measurement": "Skin fissures, % of patients with treatment-related AE", "setting": "Total (N = 13)", "value": 15, "unit": "%"},
      {"measurement": "Skin fissures, number of patients with treatment-related AE", "setting": "Total (N = 13)", "value": 2},
      {"measurement": "Stomatitis, % of patients with treatment-related AE", "setting": "Total (N = 13)", "value": 61.5, "unit": "%"},
      {"measurement": "Stomatitis, number of patients with treatment-related AE", "setting": "Total (N = 13)", "value": 8},
      {"measurement": "Weight decreased, % of patients with treatment-related AE", "setting": "Total (N = 13)", "value": 23, "unit": "%"},
      {"measurement": "Weight decreased, number of patients with treatment-related AE", "setting": "Total (N = 13)", "value": 3},
      {"measurement": "diarrhea, all-causality AE, number of patients", "setting": "[1]", "value": 12},
      {"measurement": "dry skin, all-causality AE, number of patients", "setting": "[1]", "value": 8},
      {"measurement": "paronychia, all-causality AE, number of patients", "setting": "[1]", "value": 9},
      {"measurement": "rash, all-causality AE, number of patients", "setting": "[1]", "value": 13},
      {"measurement": "stomatitis, all-causality AE, number of patients", "setting": "[1]", "value": 8},
      {"measurement": "grade 4 or 5 treatment-related adverse events", "setting": "all cohorts, all cycles", "value": "^aThere were no grade 4 or 5 treatment-related adverse events"},
      {"measurement": "grade 4 AEs", "setting": "all dose levels", "value": "No grade 4 AEs were reported"},
      {"measurement": "patients requiring temporary discontinuations due to TRAEs, number", "setting": "all in the 45 mg dosing cohort", "value": "five"},
      {"measurement": "prolonged QTcF interval, change from baseline", "setting": "one patient, 15 mg cohort, day 1 cycle 1, grade 1", "value": 26, "unit": "ms"},
      {"measurement": "treatment-related grade 3 AEs, number", "setting": "overall", "value": "eight"},
      {"measurement": "AEs observed in ≥1 patient during the single-dose administration phase", "setting": "single-dose administration phase", "value": "rash and diarrhea"}
    ]}
  ]
}
